Experimental data: ChEMBL document CHEMBL3997794, “Design and synthesis of benzodiazepine analogs as isoform-selective human lysine deacetylase inhibitors” (Eur J Med Chem, 2017)
pIC50: −log10 of the molar value.

How the values were obtained:
Histone deacetylase 1 [1] = molecular target: T1, Histone deacetylase 1 (Homo sapiens, UniProt Q13547); experiment: Inhibition of human KDAC1 using substrate A after 60 mins by fluorescence assay
Histone deacetylase 3 [2] = molecular target: T2, Histone deacetylase 3 (Homo sapiens, UniProt O15379); experiment: Inhibition of human KDAC3 using FITC-labeled p53 acetylated peptide as substrate after 60 mins by fluorescence assay
T2 sequence (O15379 whole entry): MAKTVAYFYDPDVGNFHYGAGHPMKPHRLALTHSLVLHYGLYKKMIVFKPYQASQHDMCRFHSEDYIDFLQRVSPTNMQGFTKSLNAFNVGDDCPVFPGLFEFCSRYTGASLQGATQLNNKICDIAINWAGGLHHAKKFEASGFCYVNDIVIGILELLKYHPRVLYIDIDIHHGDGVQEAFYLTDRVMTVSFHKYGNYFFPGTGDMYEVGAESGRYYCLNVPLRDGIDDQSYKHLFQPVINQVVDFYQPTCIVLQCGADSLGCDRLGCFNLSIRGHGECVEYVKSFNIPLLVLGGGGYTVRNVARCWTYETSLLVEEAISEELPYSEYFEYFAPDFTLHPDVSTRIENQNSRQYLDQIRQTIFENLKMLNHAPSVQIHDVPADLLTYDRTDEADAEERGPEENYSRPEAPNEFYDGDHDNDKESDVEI

[3] = molecular target: T3, Protein deacetylase HDAC6 (Homo sapiens, UniProt Q9UBN7); experiment: Inhibition of human KDAC6 using FITC-labeled histone H4 acetylated peptide as substrate after 60 mins by fluorescence assay
T3 sequence (Q9UBN7 whole entry): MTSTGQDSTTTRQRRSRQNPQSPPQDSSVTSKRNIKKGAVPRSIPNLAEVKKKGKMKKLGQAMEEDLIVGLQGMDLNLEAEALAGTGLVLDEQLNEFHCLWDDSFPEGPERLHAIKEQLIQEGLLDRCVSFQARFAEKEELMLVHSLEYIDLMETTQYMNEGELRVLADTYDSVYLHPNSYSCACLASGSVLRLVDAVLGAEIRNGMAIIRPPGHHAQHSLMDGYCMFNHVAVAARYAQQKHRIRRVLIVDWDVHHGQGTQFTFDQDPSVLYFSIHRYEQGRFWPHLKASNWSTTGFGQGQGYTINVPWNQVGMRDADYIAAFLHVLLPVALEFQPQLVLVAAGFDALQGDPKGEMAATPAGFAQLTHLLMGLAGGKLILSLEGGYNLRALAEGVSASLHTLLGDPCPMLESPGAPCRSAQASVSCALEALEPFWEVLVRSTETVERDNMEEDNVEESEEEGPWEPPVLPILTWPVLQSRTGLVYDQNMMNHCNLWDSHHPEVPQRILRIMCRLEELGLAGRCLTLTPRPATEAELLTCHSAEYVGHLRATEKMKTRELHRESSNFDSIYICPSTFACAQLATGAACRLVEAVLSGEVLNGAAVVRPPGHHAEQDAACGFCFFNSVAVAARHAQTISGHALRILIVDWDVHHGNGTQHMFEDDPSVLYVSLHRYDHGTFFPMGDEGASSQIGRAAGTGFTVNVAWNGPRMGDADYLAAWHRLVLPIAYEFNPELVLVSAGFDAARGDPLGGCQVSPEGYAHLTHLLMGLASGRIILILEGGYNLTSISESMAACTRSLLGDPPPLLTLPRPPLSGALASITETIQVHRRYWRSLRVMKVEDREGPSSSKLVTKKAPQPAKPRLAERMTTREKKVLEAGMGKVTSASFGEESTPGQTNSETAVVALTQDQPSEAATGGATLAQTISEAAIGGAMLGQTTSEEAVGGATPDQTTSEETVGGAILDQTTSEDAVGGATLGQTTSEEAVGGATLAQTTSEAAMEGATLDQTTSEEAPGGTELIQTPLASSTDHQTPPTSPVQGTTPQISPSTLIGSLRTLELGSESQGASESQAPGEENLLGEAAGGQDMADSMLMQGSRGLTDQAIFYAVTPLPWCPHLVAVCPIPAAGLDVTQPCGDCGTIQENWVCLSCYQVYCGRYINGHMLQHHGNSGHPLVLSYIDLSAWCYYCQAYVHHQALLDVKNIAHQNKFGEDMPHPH

Histone deacetylase 8 = molecular target: T4, Histone deacetylase 8 (Homo sapiens, UniProt Q9BY41); experiment: Inhibition of human KDAC8 after 60 mins by fluorescence assay
T4 sequence (Q9BY41 whole entry): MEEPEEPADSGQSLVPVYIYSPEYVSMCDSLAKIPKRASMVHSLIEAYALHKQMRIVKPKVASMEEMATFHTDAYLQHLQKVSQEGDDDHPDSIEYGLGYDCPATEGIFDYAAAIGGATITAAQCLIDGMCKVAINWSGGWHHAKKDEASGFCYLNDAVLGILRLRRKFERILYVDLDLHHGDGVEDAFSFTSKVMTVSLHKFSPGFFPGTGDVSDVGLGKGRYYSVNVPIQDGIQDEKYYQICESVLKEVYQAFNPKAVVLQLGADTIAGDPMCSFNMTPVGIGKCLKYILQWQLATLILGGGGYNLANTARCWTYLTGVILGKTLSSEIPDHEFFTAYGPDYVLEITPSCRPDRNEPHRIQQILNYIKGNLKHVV

Histone deacetylase 3 [4] = molecular target: T2, Histone deacetylase 3; experiment: Inhibition of human KDAC3 at 30 uM using FITC-labeled p53 acetylated peptide as substrate after 60 mins by fluorescence assay relative to control
[5] = molecular target: T5, Protein deacetylase HDAC6 (Homo sapiens) (UniProt Q9UBN7); settings: at 30 µM
T5 sequence (whole entry): T3 sequence (Q9UBN7 whole entry)
Description: Inhibition of human KDAC6 at 30 uM using FITC-labeled histone H4 acetylated peptide as substrate after 60 mins by fluorescence assay relative to control

Histone deacetylase 1 [6] = molecular target: T1, Histone deacetylase 1; experiment: Inhibition of human KDAC1 at 30 uM using substrate A after 60 mins by fluorescence assay relative to control
[7] = molecular target: T6, Histone deacetylase 8 (Homo sapiens) (UniProt Q9BY41); experiment: Inhibition of human KDAC8 at 30 uM after 60 mins by fluorescence assay relative to control
T6 sequence (whole entry): T4 sequence (Q9BY41 whole entry)

T1 sequence (Q13547 whole entry): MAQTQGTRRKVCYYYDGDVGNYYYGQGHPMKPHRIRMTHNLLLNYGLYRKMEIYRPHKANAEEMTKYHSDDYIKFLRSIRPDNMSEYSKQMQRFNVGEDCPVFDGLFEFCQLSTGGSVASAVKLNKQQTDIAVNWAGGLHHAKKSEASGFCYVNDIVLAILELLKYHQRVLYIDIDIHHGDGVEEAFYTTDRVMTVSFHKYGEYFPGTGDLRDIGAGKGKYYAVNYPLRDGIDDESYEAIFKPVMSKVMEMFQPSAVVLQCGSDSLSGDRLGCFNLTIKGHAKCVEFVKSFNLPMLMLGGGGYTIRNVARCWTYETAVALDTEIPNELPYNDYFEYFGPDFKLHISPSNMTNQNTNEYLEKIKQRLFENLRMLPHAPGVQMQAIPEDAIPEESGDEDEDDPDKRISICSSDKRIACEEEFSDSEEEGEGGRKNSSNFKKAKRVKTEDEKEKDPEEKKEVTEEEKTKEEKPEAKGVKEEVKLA

Row | SMILES | pIC50 (Histone deacetylase 1 [1]) | pIC50 (Histone deacetylase 3 [2]) | pIC50 [3] | pIC50 (Histone deacetylase 8) | inhibition (Histone deacetylase 3 [4]) | inhibition [5] | inhibition (Histone deacetylase 1 [6]) | inhibition [7]
1 | CC(C)(C)Oc1ccc(C[C@@H]2N=C(c3ccccc3)c3ccccc3NC2=O)cc1 | < 4.52 | < 4.52 | < 4.52 | < 4.52 | 0% | 0% | 4.79% | 0%
2 | O=C(C[C@@H]1N=C(c2ccccc2)c2ccccc2NC1=O)NC(c1ccccc1)(c1ccccc1)c1ccccc1 | < 4.52 | < 4.52 | < 4.52 | < 4.52 | 0% | 0% | 4.31% | 0%
3 | CC[C@@H](C)[C@@H]1N=C(c2ccccc2)c2ccccc2N(CCCCC(=O)NO)C1=O | 4.96 | 5.99 | 5.43 | < 4.52 | 96.4% | 90.9% | 75.1% | 33.1%
4 | O=C(CCCCN1C(=O)CN=C(c2ccccc2)c2ccccc21)NO | 5.42 | 6.18 | 5.72 | 5.17 | 97.2% | 94.2% | 88.3% | 75.9%
5 | COC(=O)CCCCN1C(=O)[C@H](CCC(=O)OC(C)(C)C)N=C(c2ccccc2)c2ccccc21 | < 4.52 | < 4.52 | < 4.52 | < 4.52 | 0% | 0% | 2.72% | 2.88%
6 | COC(=O)CCCCN1C(=O)[C@@H](CSC(C)(C)C)N=C(c2ccccc2)c2ccccc21 | < 4.52 | < 4.52 | < 4.52 | < 4.52 | 0% | 0% | 3.94% | 0%
7 | O=C(O)C[C@@H]1N=C(c2ccccc2)c2ccccc2NC1=O | < 4.52 | < 4.52 | < 4.52 | < 4.52 | 0% | 0% | 3.13% | 0%
8 | CC(C)(C)OC(=O)C[C@@H]1N=C(c2ccccc2)c2ccccc2N(CCCCC(=O)O)C1=O | < 4.52 | < 4.52 | < 4.52 | < 4.52 | 2.62% | 0% | 0% | 0%
9 | CC(C)(C)OC(=O)CC[C@@H]1N=C(c2ccccc2)c2ccccc2N(CCCCC(=O)NO)C1=O | 5.34 | 5.99 | 5.63 | 4.58 | 99.9% | 93.7% | 83.8% | 52.5%
10 | O=C(CCCNC(=O)C[C@@H]1N=C(c2ccccc2)c2ccccc2NC1=O)NO | 4.76 | 5.49 | 5.75 | < 4.52 | 90.7% | 95% | 63.5% | 45.1%
11 | O=C(CC[C@H]1N=C(c2ccccc2)c2ccccc2NC1=O)NO | < 4.52 | < 4.52 | < 4.52 | < 4.52 | 29.4% | 19% | 28% | 9.02%
12 | O=C(O)CC[C@H]1N=C(c2ccccc2)c2ccccc2NC1=O | < 4.52 | < 4.52 | < 4.52 | < 4.52 | 0% | 0% | 10.2% | 0%
13 | CSCC[C@@H]1N=C(c2ccccc2)c2ccccc2N(CCCCC(=O)NO)C1=O | 5.19 | 6.37 | 5.77 | 4.69 | 98.9% | 93.1% | 81.6% | 57.7%
14 | C[C@H](OCc1ccccc1)[C@@H]1N=C(c2ccccc2)c2ccccc2NC1=O | < 4.52 | < 4.52 | < 4.52 | < 4.52 | 2.49% | 3.08% | 1.5% | 9.14%
15 | CC(C)(C)OC(=O)NCCCC[C@@H]1N=C(c2ccccc2)c2ccccc2N(CCCCC(=O)O)C1=O | < 4.52 | < 4.52 | < 4.52 | < 4.52 | 0% | 0% | 6% | -2.29%
16 | O=C(O)C[C@H]1N=C(c2ccccc2)c2ccccc2NC1=O | < 4.52 | < 4.52 | < 4.52 | < 4.52 | 0% | 0% | 0.74% | 0%
17 | O=C(CCCCN1C(=O)[C@H](CC(=O)NO)N=C(c2ccccc2)c2ccccc21)NO | 5.00 | 4.98 | < 4.52 | < 4.52 | 77.7% | 42.5% | 74.7% | 10%
18 | C[C@H](OCc1ccccc1)[C@@H]1N=C(c2ccccc2)c2ccccc2N(CCCCC(=O)O)C1=O | < 4.52 | < 4.52 | < 4.52 | < 4.52 | 0% | 0% | 2.94% | 15.4%
19 | C[C@@H]1N=C(c2ccccc2)c2ccccc2N(CCCCC(=O)O)C1=O | < 4.52 | < 4.52 | < 4.52 | < 4.52 | 0% | 0.27% | 11.3% | 8.87%
20 | CC(C)(C)OC(=O)CC[C@H]1N=C(c2ccccc2)c2ccccc2NC1=O | < 4.52 | < 4.52 | < 4.52 | < 4.52 | 3.85% | 4.3% | 10.5% | 4.35%
21 | C[C@@H]1N=C(c2ccccc2)c2ccccc2NC1=O | < 4.52 | < 4.52 | < 4.52 | < 4.52 | 0% | 0% | 7.49% | 0%
22 | CC[C@H](C)[C@@H]1N=C(c2ccccc2)c2ccccc2NC1=O | < 4.52 | < 4.52 | < 4.52 | < 4.52 | 0.56% | 1.82% | 6.77% | 0%
23 | CC(C)(C)SC[C@H]1N=C(c2ccccc2)c2ccccc2NC1=O | < 4.52 | < 4.52 | < 4.52 | < 4.52 | 2.88% | 2.05% | 4.1% | 16.1%
24 | COC(=O)CCCCN1C(=O)[C@H]([C@@H](C)OCc2ccccc2)N=C(c2ccccc2)c2ccccc21 | < 4.52 | < 4.52 | < 4.52 | < 4.52 | 7.91% | 0% | 0.64% | 6.88%
25 | CC(C)(C)OC[C@@H]1N=C(c2ccccc2)c2ccccc2N(CCCCC(=O)NO)C1=O | 5.05 | 5.92 | 5.30 | < 4.52 | 94.6% | 85.1% | 73.7% | 26.9%
